Test results as given in patent publication US5512553A, “7-(substituted)-8-(substituted)-9-(substituted amino)-6-demethyl-6-deoxytetracyclines” (American Cyanamid Company, priority 1995, dated 1996).
≈ marks a conversion by molar mass, not a printed value. Structures can show the parent of a compound that is named as a salt. Where two headings read alike, the source gives them in different places.

Legend:
[1] = tested on: S. aureus IVES 1983 (MP) (meth. resistant); test: In vitro antibacterial evaluation, MIC by agar dilution; type: cell-based; conditions: Staphylococcus aureus
Method: (§1) Method for In Vitro Antibacterial Evaluation (Table I)
(§2) The minimum inhibitory concentration (MIC), the lowest concentration of the antibiotic which inhibits growth of the test organism, is determined by the agar dilution method using Muller-Hinton II agar (Baltimore Biological Laboratories). An inoculum density of 1-5×10^5 CFU/ml and an antibiotic concentration (32-≤0.015 μg/ml) is used. The plates are incubated for 18 hours at 35° C. in a forced air incubator. The test organisms comprise strains sensitive to tetracycline and genetically defined strains that are resistant to tetracycline, due to inability to bind bacterial ribosomes (tetM).

[2] = tested on: S. aureus SMITH (MP) (sensitive); test: as above; type: cell-based; conditions: Staphylococcus aureus
Method: as §1, §2

E. coli ATCC 25922 = test: as above; type: cell-based; conditions: Escherichia coli
Method: as §1, §2

[3] = tested on: S. aureus UBMS 88-4 (sensitive); test: as above; type: cell-based; conditions: Staphylococcus aureus
Method: as §1, §2

S. faecal. ATCC 29212 = test: as above; type: cell-based
Method: as §1, §2

Enteroc. spp. 12201 = test: as above; type: cell-based
Method: as §1, §2

[4] = tested on: S. aureus IVES 2943 (meth. resistant); test: as above; type: cell-based; conditions: Staphylococcus aureus
Method: as §1, §2

[5] = tested on: E. coli UBMS 89-2 (sensitive); test: as above; type: cell-based; conditions: Escherichia coli, Muller-Hinton II agar, 18 hours at 35° C.
Method: as §1, §2

[6] = tested on: E. coli UBMS 88-2 (sensitive); test: as above; type: cell-based; conditions: Escherichia coli, 18 h
Method: as §1, §2

S. haemol. AVAH 88-3 = test: as above; type: cell-based
Method: as §1, §2

[7] = tested on: S. aureus ATCC 29213 (sensitive); test: as above; type: cell-based; conditions: Staphylococcus aureus, ATCC29213; agar dilution, Muller-Hinton II agar, 18 hours at 35° C.; S. aureus ATCC 29213 (sensitive); read-out: MIC
Method: as §1, §2

[8] = tested on: S. aureus UBMS 88-7 (tetK); test: microbe, parasite or virus in culture; type: cell-based; conditions: Staphylococcus aureus, 18 h
Method: as §1, §2

[9] = tested on: S. aureus UBMS 88-5 (tetM); test: microbe, parasite or virus in culture; type: cell-based; conditions: Staphylococcus aureus, 18 h
Method: as §1, §2

E. coli UBMS 89-1 (tetM) = test: microbe, parasite or virus in culture; type: cell-based; conditions: Escherichia coli, 18 h
Method: as §1, §2

[10] = tested on: S. aureus UBMS 90-2 (tetM); test: microbe, parasite or virus in culture; type: cell-based; conditions: Staphylococcus aureus, 18 h
Method: as §1, §2

[11] = tested on: S. aureus UBMS 90-1 (tetM); test: microbe, parasite or virus in culture; type: cell-based; conditions: Staphylococcus aureus, 18 h
Method: as §1, §2

E. coli UBMS 88-1 (tetB) = test: microbe, parasite or virus in culture; type: cell-based; conditions: Escherichia coli, 18 h
Method: as §1, §2

[12] = tested on: S. aureus UBMS 90-3 (sensitive); test: In vitro antibacterial evaluation, MIC by agar dilution; type: cell-based; conditions: Staphylococcus aureus
Method: as §1, §2

[13] = tested on: S30 extract from derivative of E. coli MRE 600 containing the tetM determinant; test: E. coli in vitro cell free protein translation system, TetM S30; type: biochemical; conditions: for % Inhibition TetM S30: 35S-methionine incorporation, 30 minutes at 37° C.
Text: (§3) E. coli in Vitro protein Translation System (Table II)
(§4) An in vitro, cell free, protein translation system using extracts from E. coli strain MRE 600 (tetracycline sensitive) and a derivative of MRE 600 containing the tetM determinant has been developed based on literature methods J. M. Pratt, Coupled Transcription-translation in Prokaryotic Cell-free Systems, Transcription and Translation, a Practical Approach, (B. D. Hames and S. J. Higgins, eds) p. 179-209, IRL Press, Oxford-Washington, 1984!.
(§5) Using the system described above, the tetracycline compounds of the present invention are tested for their ability to inhibit protein synthesis in vitro. Briefly, each 10 μl reaction contains S30 extract (a whole extract) made from either tetracycline sensitive cells or an isogenic tetracycline resistant (tetM) strain, low molecular weight components necessary for transcription and translation (i.e., ATP and GTP), a mix of 19 amino acids (no methionine), ^35 S labeled methionine, DNA template (either pBR322 or pUC119), and either DMSO (control) or the novel tetracycline compound to be tested ("novel TC") dissolved in DMSO.
(§6) The reactions are incubated for 30 minutes at 37° C. Timing is initiated with the addition of the S30 extract, the last component to be added. After 30 minutes, 2.5 μl of the reaction is removed and mixed with 0.5 ml of 1N NaOH to destroy RNA and tRNA. Two to three ml of 25% trichloroacetic acid is added and the mixture incubated at room temperature for 15 minutes. The trichloroacetic acid precipitated material is collected on Whatman GF/C filters and washed with a solution of 10% trichloroacetic acid. The filters are dried and the retained radioactivity, representing incorporation of ^35 S-methionine into polypeptides, is counted using standard liquid scintillation methods.
(§7) The percent inhibition (P.I.) of protein synthesis is determined to be: [formula]

[14] = tested on: S30 extract from E. coli strain MRE 600 (tetracycline sensitive); test: E. coli in vitro cell free protein translation system, Wild Type S30; type: biochemical; conditions: for % Inhibition Wild Type S30: 35S-methionine incorporation, 30 minutes at 37° C.
Text: as §3, §4, §5, §6, §7

[15] = agar dilution, Muller-Hinton II agar, 18 hours at 35° C., S. aureus SMITH (MP) (sensitive), read-out: MIC
[16] = agar dilution, Muller-Hinton II agar, 18 hours at 35° C., S. faecal. ATCC 29212, read-out: MIC
[17] = agar dilution, Muller-Hinton II agar, 18 hours at 35° C., Enteroc. spp. 12201, read-out: MIC
[18] = agar dilution, Muller-Hinton II agar, 18 hours at 35° C., S. haemol. AVAH 88-3, read-out: MIC
[19] = ATCC25922, agar dilution, Muller-Hinton II agar, 18 hours at 35° C., E. coli ATCC 25922, read-out: MIC
[20] = agar dilution, Muller-Hinton II agar, 18 hours at 35° C., S. aureus UBMS 88-4 (sensitive), read-out: MIC
[21] = agar dilution, Muller-Hinton II agar, 18 hours at 35° C., S. aureus UBMS 90-3 (sensitive), read-out: MIC

| Structure (SMILES) | MIC ([1]; 18 h) | MIC [2, 15] | MIC (E. coli ATCC 25922; ATCC25922, 18 h) | MIC ([3]; 18 h) | MIC (S. faecal. ATCC 29212; [16]) | MIC (Enteroc. spp. 12201; [17]) | MIC ([4]; 18 h) | MIC [5] | MIC [6] | MIC (S. haemol. AVAH 88-3; [18]) | MIC [7] | MIC [8] | MIC [9] | MIC (E. coli UBMS 89-1 (tetM)) | MIC [10] | MIC [11] | MIC (E. coli UBMS 88-1 (tetB)) | MIC (E. coli ATCC 25922; [19]) | MIC (S. haemol. AVAH 88-3; 18 h) | MIC [3, 20] | also measured |
| --- | --- | --- | --- | --- | --- | --- | --- | --- | --- | --- | --- | --- | --- | --- | --- | --- | --- | --- | --- | --- | --- |
| CN(C)[C@@H]1C(O)=C(C(N)=O)C(=O)[C@@]2(O)C(O)=C3C(=O)c4c(O)cc(Cl)cc4CC3CC12 (some centres unmarked) [Compound E, 8-Chloro-4-(dimethylamino)-1,4,4a,5,5a,6-11,12a-octahydro-3,10,12,12a-tetrahydroxy-1,11-dioxo-2-naphthacenecarboxamide sulfate] | 4 µg/mL | 0.12 µg/mL | 8 µg/mL | 0.25 µg/mL | 2 µg/mL | 1 µg/mL | 4 µg/mL | 16 µg/mL | 16 µg/mL | 0.5 µg/mL | 0.03 µg/mL | 4 µg/mL | 2 µg/mL | 16 µg/mL | 1 µg/mL | 2 µg/mL | > 32 µg/mL | – | – | – | – |
| CN(C)[C@@H]1C(O)=C(C(N)=O)C(=O)[C@@]2(O)C(O)=C3C(=O)c4c(O)cc(Cl)c([N+]#N)c4CC3CC12 (stereo partly drawn) [D, 8-(Aminocarbonyl)-2-chloro-10-(dimethylamino)-5,6a,10,10a,11,11a,12-octahydro-5,7-dioxo-l-naphthacenediazonium chloride] | – | 0.5 µg/mL | – | – | 2 µg/mL | 2 µg/mL | – | 32 µg/mL | 32 µg/mL | – | 0.12 µg/mL | 8 µg/mL | 4 µg/mL | 32 µg/mL | 2 µg/mL | 4 µg/mL | > 32 µg/mL | 16 µg/mL | 1 µg/mL | – | MIC ([1]; agar dilution, Muller-Hinton II agar, 18 hours at 35° C., S. aureus IVES 1983 (MP) (meth. resistant), read-out: MIC): 16 µg/mL; MIC ([4]; agar dilution, Muller-Hinton II agar, 18 hours at 35° C., S. aureus IVES 2943 (meth. resistant), read-out: MIC): 16 µg/mL |
| CN(C)[C@@H]1C(O)=C(C(N)=O)C(=O)[C@@]2(O)C(O)=C3C(=O)c4c(cc(Cl)c(N)c4O)CC3CC12 (some centres unmarked) [G, 9-Amino-8-chloro-4-(dimethylamino)-1,4,-4a,5,5a,6,11,12a-octahydro-3,10,12,12a-tetrahydroxy-1,11-dioxo-2-naphthacenecarboxamide] | 8 µg/mL (≈ 17.2 µM) | < 0.015 µg/mL | 1 µg/mL (≈ 2.16 µM) | – | – | – | 8 µg/mL (≈ 17.2 µM) | 4 µg/mL (≈ 8.62 µM) | 4 µg/mL (≈ 8.62 µM) | 0.12 µg/mL (≈ 0.259 µM) | < 0.015 µg/mL | 2 µg/mL (≈ 4.31 µM) | 1 µg/mL (≈ 2.16 µM) | – | 0.25 µg/mL (≈ 0.539 µM) | 1 µg/mL (≈ 2.16 µM) | > 32 µg/mL | – | – | < 0.015 µg/mL | MIC (S. faecal. ATCC 29212; 18 h): 0.25 µg/mL (≈ 0.539 µM); MIC (Enteroc. spp. 12201; 18 h): 2 µg/mL (≈ 4.31 µM); MIC [12, 21]: < 0.015 µg/mL |
| COC(=O)Nc1c(Cl)cc2c(c1O)C(=O)C1=C(O)[C@]3(O)C(=O)C(C(N)=O)=C(O)[C@@H](N(C)C)C3CC1C2 (stereo partly drawn) [I, 7S-(7alpha, 10aalpha)!- 9-(Aminocarbonyl)-3-chloro-7-(dimethylamino)-5,5a,6-6a,7,10,10a,12-octahydro-1,8,10a,11-tetrahydroxy-10,12-dioxo-2-naphthacenyl!-carbamic acid methyl ester] | 4 µg/mL (≈ 7.66 µM) | – | 8 µg/mL (≈ 15.3 µM) | 0.06 µg/mL (≈ 0.115 µM) | – | – | 4 µg/mL (≈ 7.66 µM) | 16 µg/mL (≈ 30.7 µM) | – | – | < 0.015 µg/mL | 2 µg/mL (≈ 3.83 µM) | 0.5 µg/mL (≈ 0.958 µM) | 8 µg/mL (≈ 15.3 µM) | 0.5 µg/mL (≈ 0.958 µM) | 0.5 µg/mL (≈ 0.958 µM) | > 32 µg/mL | – | 0.5 µg/mL (≈ 0.958 µM) | – | MIC ([2]; 18 h): 0.06 µg/mL (≈ 0.115 µM); MIC (S. faecal. ATCC 29212; 18 h): 0.5 µg/mL (≈ 0.958 µM); MIC (Enteroc. spp. 12201; 18 h): 2 µg/mL (≈ 3.83 µM); MIC ([12]; 18 h): 0.06 µg/mL (≈ 0.115 µM) |
| CN(C)c1ccc(O)c2c1C[C@H]1C[C@H]3[C@H](N(C)C)C(O)=C(C(N)=O)C(=O)[C@@]3(O)C(O)=C1C2=O [L, Minocycline hydrochloride, reference compound] | 4 µg/mL | 0.03 µg/mL | – | – | 1 µg/mL | 8 µg/mL | 4 µg/mL | 1 µg/mL | 0.25 µg/mL | – | ≤ 0.015 µg/mL | – | 4 µg/mL | 8 µg/mL | 4 µg/mL | 4 µg/mL | 16 µg/mL | 0.5 µg/mL | – | 0.03 µg/mL | % Inhibition TetM S30 ([13]; Conc. 0.1 mg/ml): 0%; % Inhibition TetM S30 ([13]; Conc. 0.3 mg/ml): 0%; % Inhibition TetM S30 ([13]; Conc. 1.0 mg/ml, hydrochloride): 19%; % Inhibition TetM S30 ([13]; Conc. 1.0 mg/ml, listed as minocycline, hydrochloride): less than 20%; inhibition of protein synthesis, in words ([13]; cell-free extracts from strain MRE600 (tetM)): resistant; MIC [12, 21]: 0.03 µg/mL; % Inhibition Wild Type S30 ([14]; Conc. 0.1 mg/ml): 66%; % Inhibition Wild Type S30 ([14]; Conc. 0.3 mg/ml, hydrochloride): 91%; % Inhibition Wild Type S30 ([14]; Conc. 1.0 mg/ml): 90%; inhibition of protein synthesis, in words ([14]; cell-free extracts from tetracycline susceptible strain MRE600): inhibited |
